Data as given in publication PMC5145181, “Structural Mapping and Functional Characterization of Zebrafish Class B G-Protein Coupled Receptor (GPCR) with Dual Ligand Selectivity towards GLP-1 and Glucagon” (PLoS ONE, 2016).
Where two headings read alike, the source gives them in different places.

Experiments:
[1] = tested on: hGLP-1R mutant Asn318 to alanine; set-up: method as in PMID 23479653; settings: Asn318 mutated to alanine, cell surface expression unchanged; cited from earlier work
[2] = tested on: zfGPCR (dual zfGLP-1R/GCGR); assay: Intracellular cAMP in COS-7 cells expressing recombinant zfGPCR; format: cell-based, zebrafish (Danio rerio); settings: for EC50: 20 min at 37°C, pH 7.4, 1 mM 1-methyl-3-isobutylxanthine, enzyme immunoassay, n = 9 zfGLP-1, n = 5 hGLP-1, zf glucagon, h glucagon, n = 3 exendin-4, n = 6 zfGLP-2. 95% CI: zfGLP-1 0.24–0.80, hGLP-1 0.65–1.63, zf glucagon 0.20–2.9, h glucagon 0.18–1.63, exendin-4 0.07–0.46, zfGLP-2 16.8–72.6
Description: The ability of different peptides to stimulate the increase in intracellular cAMP levels following their binding to the recombinant zfGPCR transiently expressed in COS-7 cells was measured using methods that we developed for non-mammalian G-protein coupled receptors. In brief, COS-7 cells were grown to confluence in 100-mm plates at 37°C and transfected with the pcDNA3 vector containing the recombinant zfGPCR using the TransFast transfection reagent (Promega, Madison, WI) at a […] of plasmid DNA (25 ug) to transfection reagent (75 μL). After 24 h cells were trypsynized and transferred to 24-well plates (Biocore, Becton-Dickinson, Franklin Lakes, NJ). Peptides (pM-μM) were added 24–48 h later. Cells were equilibrated prior to the addition of peptides with the assay buffer (DMEM, 0.5% BSA, 20mM HEPES, 1mM 1-methyl-3-isobutylxanthine, 0.1mM phenylmethylsulfonyl fluoride, pH 7.4) for 20 min at 37°C. Each peptide concentration was added in triplicate wells for 20 min at 37°C. cAMP dose-response curves for each tested peptide were obtained in a single 24-well plate. In all experiments, forskolin (100 nM) (Sigma-Aldrich, St.Louis, MO) was added as a positive control, also in triplicate wells, in the same 24-well plate as the tested peptide. After incubation, the media was removed and cells were lysed by the addition of cold ethanol (1 mL per well). Cell debris was pelleted by centrifugation (10,000 g) for 10-min, and supernatants were dried using a vacuum concentrator. Samples were resuspended in an assay buffer provided by the manufacturer and cAMP levels were quantified by the enzyme immunoassay kit (Cayman Chemicals, Ann Arbor, MI) according to the manufacturer’s instructions. The basal concentration of cAMP (in the absence of peptides) was taken as 1.00, and was in the range of 9–16 pmol/well. Results are presented as a fold-increase over basal.
Results were plotted by the Origin 9 software (OriginLab), and EC50 values were calculated by Prism 4 software as described below.
(§1) Results from the functional experiments with recombinant zfGPCR transiently expressed in COS-7 cells were analyzed by the Prism 4 software using a four-parameter logistic sigmoidal curve fit model. Data points represent mean +/- SEM.
They are shown together with the 95% confidence intervals (CIs).
Comparison of EC50 values calculated from the zfGLP-1 cAMP dose-response curve with the EC50 calculated from the cAMP dose-response curves for each of the tested peptides were performed by the F-test from the Prism 4 software which compares the fitted mid-point (EC50) from the data sets of the two dose-response curves under comparison. Conditions of analysis were as follows: (i) in the normalization step y = 0% was set to be 1 (the basal cAMP concentration taken as 1); y = 100% was set to be the largest value in each data set; (ii) constrained curve-fit parameters were set to be equal to 0.00 on the bottom, 100 on top; (iii) EC50 was not constrained; (iv) the selected option in the non-linear regression curve fit was intended on finding out whether the best-fit of a selected parameter (EC50) differs between two sets.

[3] = tested on: zfGPCR (dual zfGLP-1R/GCGR); assay: Competitive binding, displacement of 125I-hGLP-1(7–36)amide from recombinant zfGPCR expressed in COS-7 cells; set-up: species or system zebrafish (Danio rerio); settings: 125I-hGLP-1(7–36)amide tracer, intact COS-7 cells, 16–18 h at 4°C, triplicate wells; NSB with 1 μM peptide; n = 3 hGLP-1, n = 2 zf glucagon, exendin-4, exendin(9–39), n = 1 zfGLP-1. 95% CI: zfGLP-1 1.2–3.6; hGLP-1 0.98–13; zf glucagon 1.4–4.0; exendin-4 0.24–0.92; exendin(9–39) 2.4–14
Description: (§2) Competitive binding experiments were performed with the recombinant zfGPCR expressed in COS-7 cells, as described previously. Transient transfections of pcDNA3 vector containing recombinant zfGPCR into COS-7 cells were performed as described below for the stimulation of intracellular cAMP. Cells were grown in 100-mm plates to confluence and 24 hr after transfection they were trypsinized and transferred to 24 well plates (Biocore, Becton Dickinson). 24–48 hr later each peptide (pM to μM) was added in triplicate wells followed by the addition of an aliquot (100,000 cpm/well) of either ^125I-hGLP-1(7–36)amide or ^125I-exendin(9–39) (each radioactive peptide tracer at […] receptor grade, NEN Life Science Products, Boston, MA). Peptides, radioiodinated ^125I-tracer and cells were incubated for 16–18 h at 4°C. After incubation cells were washed twice with ice-cold PBS, lysed with 1N NaOH and radioactivity measured in a γ-counter. A single dose-displacement curve for each peptide was obtained in a single 24-well plate.
Dose-response curves for zfGLP-1, zfGLP-2 and zebrafish PACAP-38 were obtained from one transfection. […] Lower rounds of transfections were performed in experiments that replicated our published results from the competitive binding experiments with the displacement of ^125I-hGLP-1(7–36)amide binding to zfGPCR [41] and thus represented positive controls for these studies.
(§3) IC50 values represent an average of n experiments as described above and were calculated by the Prism 4 software. Displacement curves from the competitive binding experiments were plotted by Origin 9 software (OriginLab). Error bars are shown for data points in the displacement curves obtained in two or more rounds of transfections.
as §1
They are shown together with the 95% confidence intervals (CIs). […]

[4] = tested on: zfGPCR (dual zfGLP-1R/GCGR); assay: Competitive binding, displacement of 125I-exendin(9–39) from recombinant zfGPCR expressed in COS-7 cells; set-up: species or system zebrafish (Danio rerio); settings: 125I-exendin(9–39) tracer, intact COS-7 cells, 16–18 h at 4°C, triplicate wells, NSB with 1 μM peptide, n = 4 zfGLP-1, n = 3 hGLP-1, zf glucagon, exendin-4, n = 5 exendin(9–39). 95% CI: zfGLP-1 225–371, hGLP-1 121–262, zf glucagon 78.5–144, h glucagon 33.6–134, exendin-4 0.84–1.17, exendin(9–39) 3.42–5.17
Description: as §2
Non-specific binding was determined in the presence of 1μM of each peptide.
as §3, §1
They are shown together with the 95% confidence intervals (CIs). The F-test was used to compare the IC50 value for zfGLP-1 with the IC50 values for the other tested peptides obtained in the competitive binding experiments shown when ^125I-hGLP-1(7–36)amide or ^125I-exendin (9–39) were used as tracers. Following conditions were used for the curve fitting: (i) in the normalization step y = 0%was set to be 0, y = 100% was set to be 100; (ii) constrained curve-fit parameters were set to be equal to 0.00 on the bottom, 100 on top; (iii) IC50 was not constrained; (iv) the selected option in the non-linear regression curve fit was intended on finding out whether the best-fit of a selected parameter (IC50) differs between two sets.

[5] = tested on: hGCGR mutant Glu362 to alanine; settings: reduced surface expression; cited from earlier work
Source text: Our inspection of the 7TM crystal structure of hGCGR [30] also identified a hydrophilic cluster formed by a salt bridge between Lys187^2.60 in TM2 and Glu362^6.53 in TM6, and hydrophilic portions of residues Tyr149^1.47 in TM1, Gln232^2.38, Asp238^2.43, […] in TM2; His361^6.52 in TM6, and Asp385^7.42, Ser389^7.46 Gln392^7.49 in TM7. This TM7-TM6-TM2-TM1 cluster offers a hydrophilic environment embedded deep inside the hydrophobic transmembrane.

[6] = molecular target: recombinant glucagon receptor from the frog R. tigrina rugulosa; set-up: method as in PMID 10471837; settings: cited from earlier work
[7] = molecular target: glucagon receptor in rat hepatocytes; settings: cited from earlier work
Description: (§4) Moreover, EC50’s for human and zebrafish glucagon obtained in our study were within similar concentration range as the EC50 ‘s determined in experiments with recombinant glucagon receptors from other vertebrate species. Thus, EC50‘s for human glucagon obtained from the cAMP assays performed with the recombinant glucagon receptor from the frog and the recombinant rat glucagon receptor were 0.8 nM [19] and 0.7nM [13], respectively, and are similar to the EC50 value of 1nM determined for the glucagon receptor in rat hepatocytes.

[8] = molecular target: recombinant glucagon receptor from the frog; settings: cited from earlier work
Description: as §4

[9] = molecular target: recombinant rat glucagon receptor; settings: cited from earlier work
Description: as §4

[10] = tested on: goldfish GCGR; settings: 95% CI: goldfish glucagon 1.3–7 nM; human glucagon 4.7–20 nM; cited from earlier work
Source text: In those studies the EC50 for goldfish glu ...

[11] = tested on: hGCGR mutant Cys240 to Tyr240; settings: cited from earlier work
Source text: In the 7TM crystal structure of hGCGR [30], the side chain of Tyr239^3.44 in TM3 interacts with the backbone atoms of Gly359^6.50 (3.5Å) and Leu358^6.49 (2.8Å) in TM6. Tyr239^3.44 is conserved only in hGLP-1R and is substituted with Asn23 ...

[12] = tested on: recombinant hGCGR; set-up: method as in PMID 7507321; settings: cited from earlier work
[13] = tested on: zfGPCR (dual zfGLP-1R/GCGR); settings: displacement of 125I-hGLP-1(7–36)amide; read-out: IC50 in competitive binding (earlier characterization of the zfGPCR); cited from earlier work
Description: Furthermore, exendin-4, an agonist of hGLP-1R, displaced in competitive binding experiments the binding of ^125I-hGLP-1(7–36) amide to the zebrafish receptor with an IC50 of 0.9 nM, which is within a similar concentration range as the one determined in competitive binding experiments with recombinant hGLP-1R [41] and rGLP-1R [23]. However, subsequent phylo ...

[14] = tested on: hGLP-1R mutant Ser155 to alanine; settings: Ser152 in hGCGR = Ser155 in hGLP-1R, mutated to alanine; cited from earlier work
Source text: Among those are TM1-TM7 interaction between Ser152^1.50 and Ser 390^7.47 in which Ser152^1.50 in TM1 in hGCGR forms a hydrogen bond with the backbone of Ser390^7.47 in TM7.

[15] = molecular target: recombinant glucagon receptor from the goldfish C. auratus (gfGCGR); settings: 95% CI: zebrafish glucagon 4.3–18 nM; goldfish glucagon 0.31–1 nM; cited from earlier work
Source text: To be consistent with our initial characterization of this receptor which we referred to as zfGLP-1R [41] and the characterization of the gfGCGR [18] we used only the sequences of zfGLP-1 and zf glucagon used in those studies (shown in Fig 1) and not the second zfGLP-1 and second zebrafish glucagon found in the zebrafish genome.

[16] = tested on: GLP-1R; settings: cited from earlier work
Source text: Receptors for GLP-1 (GLP-1R) and glucagon (GCGR) belong to the class B GPCRs that mediate the physiological effects of the peptides within the glucagon-secretin peptide family. Their structures are characterized by large amino terminal extracellular domains which are about 140 amino acids long and an intracellular core consisting of a cytoplasmic domain and seven transmembrane helices (7TMs) connected through three extracellular and three intracellular loops.

[17] = tested on: fish hepatocytes; settings: GLP-1 from both human and fish; cited from earlier work
Source text: Our approach to understanding the selectivity of ligand recognition by the receptors for the gluco-regulatory peptides, GLP-1 and glucagon, has been to functionally characterize the ligand selectivity of GCGRs and GLP-1Rs from non-mammalian vertebrates and to compare them to the ligand selectivity of their mammalian counterparts. […] In the abs ...

For exendin(9–39), the receptor affinity [1] is listed as “reduced the receptor’s affinity”, the “behaviour at the zfGPCR” value ([2]; cAMP assay) is listed as “behaved as an antagonist” and the “stimulatory effect on cAMP levels” value ([2]; even at 1μM, n = 4) is listed as “did not show any stimulatory effects”. For the same substance, the IC50 [3] was 5.8 nM and the IC50 [4] was 4.21 nM.

In the case of “human glucagon: synthetic human glucagon purchased from Bachem”, the “effect of mutation on binding of glucagon” value [5] is listed as “decrease in the binding”, the IC50 [6] is listed as 12 nM and the EC50 [7] is listed as 1 nM. For the same substance, the EC50 [8] was 0.8 nM, the EC50 [9] was 0.7 nM and the EC50 [2] was 0.54 nM. The EC50 [10] was 9.7 nM, the “effect of mutation on binding to glucagon” value [11] was “did not have an effect” and the IC50 [12] was 5 nM. The IC50 [4] was 67 nM.

In the case of “hGLP-1: Synthetic hGLP-1(7–36)amide (referred throughout as hGLP-1), purchased from Bachem”, the receptor affinity [1] is given as “reduced the receptor’s affinity”, the IC50 [13] is given as 0.9 nM and the EC50 [2] is given as 1 nM. The IC50 [3] was 3.6 nM, the IC50 [4] was 178 nM and the receptor affinity [14] was “small reduction of receptor affinity”.

For “goldfish glucagon: glucagon of goldfish, literature comparison (HSEGTFSNDYSKYLETRRAQDFVEWLMNS; Glucagon; UniProt P79695 50-78, looked up)”, the IC50 [15] is given as 0.56 nM and the EC50 [10] is given as 3 nM.

In the case of “GLP-1: refers to both GLP-1(7–37) and GLP-1(7–36)amide”, the “stimulation of intracellular cAMP, GLP-1 vs exendin-4” value [16] is listed as “to a similar degree” and the gluconeogenesis [17] is listed as “stimulated gluconeogenesis”.
